How the values were obtained:
Type in all cases: biochemical
[1] = biological target: PI3K-gamma (Homo sapiens, UniProt P48736); assay: PI3K-gamma fluorescence polarization assay; details: PI3Kγ Avg. IC50
Procedure, shortened: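 Reactions in 5 mM HEPES pH 7, 2.5 mM MgCl2, 25 μM ATP with 2.5 μM diC8-PI(4,5)P2 and 5 ng enzyme, 1 h at 25° C, then EDTA quench. Product detected by FP using GST-GRP1 PH domain (100 nM) and BODIPY-TMR-IP4 tracer (5 nM); final DMSO 0.8%.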

[2] = biological target: T1, human TOR (Homo sapiens, UniProt P42345); assay: mTOR enzyme assay (DELFIA, His6-S6K substrate); details: read-out: mTOR Kinase Avg. IC50
T1 construct: FLAG

[3] = biological target: PI3K-alpha (Homo sapiens, UniProt P42336); assay: PI3K-alpha fluorescence polarization assay; details: read-out: PI3Kα Avg. IC50
Sequence of PI3K-alpha (P42336 whole entry, species assumed): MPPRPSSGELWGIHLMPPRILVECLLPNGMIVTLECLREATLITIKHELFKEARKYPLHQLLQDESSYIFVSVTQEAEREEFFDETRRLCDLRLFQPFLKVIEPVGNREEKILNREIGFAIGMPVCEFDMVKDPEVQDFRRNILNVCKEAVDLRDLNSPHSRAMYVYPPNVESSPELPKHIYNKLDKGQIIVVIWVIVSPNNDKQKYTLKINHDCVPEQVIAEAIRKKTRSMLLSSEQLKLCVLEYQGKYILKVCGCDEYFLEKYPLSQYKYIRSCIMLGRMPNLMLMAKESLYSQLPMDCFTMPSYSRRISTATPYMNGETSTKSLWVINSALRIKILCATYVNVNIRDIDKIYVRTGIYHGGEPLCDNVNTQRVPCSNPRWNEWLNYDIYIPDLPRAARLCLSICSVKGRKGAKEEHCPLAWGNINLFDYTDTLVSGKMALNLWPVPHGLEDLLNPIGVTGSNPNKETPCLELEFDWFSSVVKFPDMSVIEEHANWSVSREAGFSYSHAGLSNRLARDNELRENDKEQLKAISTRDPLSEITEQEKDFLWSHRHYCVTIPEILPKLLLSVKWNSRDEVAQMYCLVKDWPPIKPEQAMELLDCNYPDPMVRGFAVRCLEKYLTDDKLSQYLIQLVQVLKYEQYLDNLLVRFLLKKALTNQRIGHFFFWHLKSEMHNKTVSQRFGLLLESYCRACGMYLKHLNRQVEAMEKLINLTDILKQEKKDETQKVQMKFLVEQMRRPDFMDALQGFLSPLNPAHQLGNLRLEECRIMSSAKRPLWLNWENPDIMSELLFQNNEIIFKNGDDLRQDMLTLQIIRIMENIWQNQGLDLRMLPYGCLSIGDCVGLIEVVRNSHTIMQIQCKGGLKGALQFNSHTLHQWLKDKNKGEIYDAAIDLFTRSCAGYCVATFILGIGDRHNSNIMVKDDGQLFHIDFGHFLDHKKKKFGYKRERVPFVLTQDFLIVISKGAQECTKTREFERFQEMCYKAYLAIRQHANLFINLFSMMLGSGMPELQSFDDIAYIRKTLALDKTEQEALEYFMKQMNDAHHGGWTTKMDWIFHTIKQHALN
Sequence of PI3K-alpha (P27986 whole entry partner, species assumed): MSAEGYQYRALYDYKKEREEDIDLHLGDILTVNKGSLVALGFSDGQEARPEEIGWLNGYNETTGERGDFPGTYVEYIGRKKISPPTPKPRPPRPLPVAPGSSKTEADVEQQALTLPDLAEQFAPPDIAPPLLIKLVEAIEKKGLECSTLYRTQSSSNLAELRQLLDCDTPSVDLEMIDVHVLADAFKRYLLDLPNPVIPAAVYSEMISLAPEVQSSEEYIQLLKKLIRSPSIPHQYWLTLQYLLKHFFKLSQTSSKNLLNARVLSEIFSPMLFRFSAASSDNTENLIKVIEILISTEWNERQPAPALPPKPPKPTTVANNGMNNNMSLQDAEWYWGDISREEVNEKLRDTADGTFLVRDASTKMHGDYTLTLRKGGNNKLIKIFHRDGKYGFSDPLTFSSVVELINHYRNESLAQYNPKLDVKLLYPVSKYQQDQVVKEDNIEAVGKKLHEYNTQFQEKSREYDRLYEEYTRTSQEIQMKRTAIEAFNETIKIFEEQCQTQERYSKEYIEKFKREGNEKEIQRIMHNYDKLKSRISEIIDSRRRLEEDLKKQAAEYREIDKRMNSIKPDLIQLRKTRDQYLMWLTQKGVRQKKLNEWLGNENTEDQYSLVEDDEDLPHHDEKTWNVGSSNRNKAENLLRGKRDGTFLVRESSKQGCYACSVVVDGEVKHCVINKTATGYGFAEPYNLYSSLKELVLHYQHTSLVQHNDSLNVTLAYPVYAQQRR

Sequence of PI3K-gamma (P48736 whole entry, species assumed, the tested form may be a part): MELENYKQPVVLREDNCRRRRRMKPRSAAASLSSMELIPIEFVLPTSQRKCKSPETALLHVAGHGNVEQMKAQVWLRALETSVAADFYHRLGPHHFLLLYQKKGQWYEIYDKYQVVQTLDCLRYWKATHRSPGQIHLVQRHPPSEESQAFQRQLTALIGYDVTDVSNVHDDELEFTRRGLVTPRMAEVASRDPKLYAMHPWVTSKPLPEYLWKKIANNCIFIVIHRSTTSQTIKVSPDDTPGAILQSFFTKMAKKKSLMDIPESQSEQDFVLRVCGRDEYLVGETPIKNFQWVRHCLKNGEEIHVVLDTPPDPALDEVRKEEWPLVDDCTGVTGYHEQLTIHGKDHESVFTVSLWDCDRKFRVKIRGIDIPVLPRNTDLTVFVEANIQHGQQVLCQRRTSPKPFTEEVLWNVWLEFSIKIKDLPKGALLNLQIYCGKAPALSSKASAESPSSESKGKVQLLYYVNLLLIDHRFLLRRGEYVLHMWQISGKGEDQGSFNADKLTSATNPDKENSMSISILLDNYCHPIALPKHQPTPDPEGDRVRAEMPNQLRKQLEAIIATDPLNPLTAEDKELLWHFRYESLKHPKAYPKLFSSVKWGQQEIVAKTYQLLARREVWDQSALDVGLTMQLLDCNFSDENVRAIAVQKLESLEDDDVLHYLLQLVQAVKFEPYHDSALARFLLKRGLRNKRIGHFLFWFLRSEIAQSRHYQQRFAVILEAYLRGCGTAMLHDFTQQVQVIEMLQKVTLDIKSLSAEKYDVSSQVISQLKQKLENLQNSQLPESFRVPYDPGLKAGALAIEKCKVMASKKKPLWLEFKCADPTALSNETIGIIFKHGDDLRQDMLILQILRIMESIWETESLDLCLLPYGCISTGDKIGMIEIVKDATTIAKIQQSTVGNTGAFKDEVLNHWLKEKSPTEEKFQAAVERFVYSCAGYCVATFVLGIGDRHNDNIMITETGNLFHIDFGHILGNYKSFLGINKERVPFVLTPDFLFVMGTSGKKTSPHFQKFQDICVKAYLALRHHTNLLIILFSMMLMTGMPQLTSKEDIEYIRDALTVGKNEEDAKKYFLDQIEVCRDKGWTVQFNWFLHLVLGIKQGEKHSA

Structure (SMILES): Cn1cc(/C=C2\Oc3cc(O)cc(O)c3C2=O)c2c(-c3ccc(-c4ccc(CN)cc4)cc3)cccc21 [Example 300, (2Z)-2-({4-[4′-(Aminomethyl)biphenyl-4-yl]-1-methyl-1H-indol-3-yl}methylene)-4,6-dihydroxy-1-benzofuran-3(2H)-one]
- IC50 [1]: 9.5 µM
- IC50 [2]: 0.133 µM
- IC50 [3]: 2.86 µM

Structure (SMILES): CN(C)Cc1ccc(-c2ccc(-c3cccc4c3c(/C=C3\Oc5cc(O)cc(O)c5C3=O)cn4C)cc2)cc1 [Example 301, (2Z)-2-[(4-{4′-[(Dimethylamino)methyl]biphenyl-4-yl}-1-methyl-1H-indol-3-yl)methylene]-4,6-dihydroxy-1-benzofuran-3(2H)-one]
- IC50 [1]: 2.31 µM
- IC50 [2]: 0.125 µM
- IC50 [3]: 1.23 µM

Structure (SMILES): COc1ccc2c(c1)c(/C=C1\Oc3cc(O)cc(O)c3C1=O)c(C(=O)N(C)C)n2CCN1CCC(O)CC1 [Example 311, 3-[(Z)-(4,6-Dihydroxy-3-oxo-1-benzofuran-2(3H)-ylidene)methyl]-1-[2-(4-hydroxypiperidin-1-yl)ethyl]-5-methoxy-N,N-dimethyl-1H-indole-2-carboxamide]
- IC50 [1]: 0.144 µM
- IC50 [2]: 0.0885 µM
- IC50 [3]: 0.008 µM

Structure (SMILES): COc1ccc2c(c1)c(/C=C1\Oc3cc(O)cc(O)c3C1=O)cn2CCn1ccnc1 [Example 312, (2Z)-4,6-Dihydroxy-2-({1-[2-(1H-imidazol-1-yl)ethyl]-5-methoxy-1H-indol-3-yl}methylene)-1-benzofuran-3(2H)-one]
- IC50 [1]: 0.0815 µM
- IC50 [2]: 0.152 µM
- IC50 [3]: 0.0095 µM

Structure (SMILES): COc1ccc2c(c1)c(/C=C1\Oc3cc(O)cc(O)c3C1=O)c(C1CC1)n2CCO [Example 313, (2Z)-2-{[2-Cyclopropyl-1-(2-hydroxyethyl)-5-methoxy-1H-indol-3-yl]methylene}-4,6-dihydroxy-1-benzofuran-3(2H)-one]
- IC50 [1]: 0.0165 µM
- IC50 [2]: 0.00053 µM
- IC50 [3]: 0.003 µM

Structure (SMILES): COc1ccc2c(c1)c(/C=C1\Oc3cc(O)cc(O)c3C1=O)c(C(=O)N(C)C)n2CCn1ccnc1 [Example 314, 3-[(Z)-(4,6-Dihydroxy-3-oxo-1-benzofuran-2(3H)-ylidene)methyl]-1-[2-(1H-imidazol-1-yl)ethyl]-5-methoxy-N,N-dimethyl-1H-indole-2-carboxamide]
- IC50 [1]: 0.116 µM
- IC50 [2]: 0.155 µM
- IC50 [3]: 0.029 µM

Structure (SMILES): COc1ccc2c(c1)c(/C=C1\Oc3cc(O)cc(O)c3C1=O)c(C1CC1)n2CCN1CCC(O)CC1 [Example 315, (2Z)-2-({2-Cyclopropyl-1-[2-(4-hydroxypiperidin-1-yl)ethyl]-5-methoxy-1H-indol-3-yl}methylene)-4,6-dihydroxy-1-benzofuran-3(2H)-one]
- IC50 [1]: 0.0265 µM
- IC50 [2]: 0.0042 µM
- IC50 [3]: 0.003 µM

Structure (SMILES): COc1ccc2c(c1)c(/C=C1\Oc3cc(O)cc(O)c3C1=O)c(C)n2CC(=O)N(C)C [Example 322, 2-{3-[(Z)-(4,6-Dihydroxy-3-oxo-1-benzofuran-2(3H)-ylidene)methyl]-5-methoxy-2-methyl-1H-indol-1-yl}-N,N-dimethylacetamide]
- IC50 [1]: 0.178 µM
- IC50 [2]: 0.023 µM
- IC50 [3]: 0.0398 µM

Structure (SMILES): COc1ccc2c(c1)c(/C=C1\Oc3cc(O)ccc3C1=O)cn2CCCN(C)C [Example 324, (2Z)-2-({1-[3-(Dimethylamino)propyl]-5-methoxy-1H-indol-3-yl}methylene)-6-hydroxy-1-benzofuran-3(2H)-one]
- IC50 [1]: 0.656 µM
- IC50 [2]: 0.365 µM
- IC50 [3]: 0.0915 µM

Structure (SMILES): COc1ccc2c(c1)c(/C=C1\Oc3cc(O)cc(O)c3C1=O)c(C(=O)N(C)C)n2CC(=O)N(C)C [Example 325, 3-[(Z)-(4,6-Dihydroxy-3-oxo-1-benzofuran-2(3H)-ylidene)methyl]-1-[2-(dimethylamino)-2-oxoethyl]-5-methoxy-N,N-dimethyl-1H-indole-2-carboxamide]
- IC50 [1]: 0.298 µM
- IC50 [2]: 0.084 µM
- IC50 [3]: 0.281 µM

Structure (SMILES): COc1ccc2c(c1)c(/C=C1\Oc3c(ccc(O)c3C)C1=O)c(C)n2CCN1CCN(C)CC1 [Example 347, (2Z)-6-Hydroxy-2-({5-methoxy-2-methyl-1-[2-(4-methylpiperazin-1-yl)ethyl]-1H-indol-3-yl}methylene)-7-methyl-1-benzofuran-3(2H)-one]
- IC50 [1]: 8.67 µM
- IC50 [2]: > 4 µM
- IC50 [3]: 0.408 µM

Structure (SMILES): COc1ccc2c(c1)c(/C=C1\Oc3cc(O)c(Br)cc3C1=O)c(C)n2CCCN(C)C [Example 350, (2Z)-5-Bromo-2-({1-[3-(dimethylamino)propyl]-5-methoxy-2-methyl-1H-indol-3-yl}methylene)-6-hydroxy-1-benzofuran-3(2H)-one]
- IC50 [1]: 6.87 µM
- IC50 [2]: > 20 µM
- IC50 [3]: 0.114 µM

Structure (SMILES): COc1ccc2c(c1)c(/C=C1\Oc3cc(O)c(F)cc3C1=O)c(C)n2CCCN(C)C [Example 352, (2Z)-2-({1-[3-(Dimethylamino)propyl]-5-methoxy-2-methyl-1H-indol-3-yl}methylene)-5-fluoro-6-hydroxy-1-benzofuran-3(2H)-one]
- IC50 [1]: 3.93 µM
- IC50 [2]: > 0.8 µM
- IC50 [3]: 0.116 µM

Structure (SMILES): COc1ccc2c(c1)c(/C=C1\Oc3c(ccc(O)c3Cl)C1=O)c(C)n2CCCN(C)C [Example 361, (2Z)-7-Chloro-2-({1-[3-(dimethylamino)propyl]-5-methoxy-2-methyl-1H-indol-3-yl}methylene)-6-hydroxy-1-benzofuran-3(2H)-one]
- IC50 [1]: 3.44 µM
- IC50 [2]: > 0.8 µM
- IC50 [3]: 0.306 µM

Structure (SMILES): O=C1/C(=C/c2c[nH]c3cccc(-c4ccc(F)cc4)c23)Oc2cc(O)cc(O)c21 [Example 363, (2Z)-2-{[4-(4-fluorophenyl)-1H-indol-3-yl]methylene}-4,6-dihydroxy-1-benzofuran-3(2H)-one]
- IC50 [1]: 1.08 µM
- IC50 [2]: 3.5 µM
- IC50 [3]: 1.65 µM

Structure (SMILES): Cn1cc(/C=C2\Oc3cc(O)cc(O)c3C2=O)c2c(-c3ccc(F)cc3)cccc21 [Example 364, (2Z)-2-{[4-(4-Fluorophenyl)-1-methyl-1H-indol-3-yl]methylene}-4,6-dihydroxy-1-benzofuran-3(2H)-one]
- IC50 [1]: 1.28 µM
- IC50 [2]: 0.123 µM
- IC50 [3]: 0.698 µM

Structure (SMILES): Cn1cc(/C=C2\Oc3cc(O)cc(O)c3C2=O)c2c(-c3cccc(F)c3)cccc21 [Example 365, (2Z)-2-{[4-(3-Fluorophenyl)-1-methyl-1H-indol-3-yl]methylene}-4,6-dihydroxy-1-benzofuran-3(2H)-one]
- IC50 [1]: 1.96 µM
- IC50 [2]: 0.104 µM
- IC50 [3]: 0.437 µM

Structure (SMILES): Cn1cc(/C=C2\Oc3cc(O)cc(O)c3C2=O)c2c(-c3ccccc3F)cccc21 [Example 366, (2Z)-2-{[4-(2-Fluorophenyl)-1-methyl-1H-indol-3-yl]methylene}-4,6-dihydroxy-1-benzofuran-3(2H)-one]
- IC50 [1]: 3.93 µM
- IC50 [2]: 0.0755 µM
- IC50 [3]: 1.09 µM

Structure (SMILES): Cn1cc(/C=C2\Oc3cc(O)cc(O)c3C2=O)c2c(-c3cccc(C#N)c3)cccc21 [Example 367, 3-{3-[(Z)-(4,6-Dihydroxy-3-oxo-1-benzofuran-2(3H)-ylidene)methyl]-1-methyl-1H-indol-4-yl}benzonitrile]
- IC50 [1]: 5.42 µM
- IC50 [2]: 0.5 µM
- IC50 [3]: 1.44 µM

Structure (SMILES): Cn1cc(/C=C2\Oc3cc(O)cc(O)c3C2=O)c2c(-c3ccc(C#N)cc3)cccc21 [Example 368, 4-{3-[(Z)-(4,6-Dihydroxy-3-oxo-1-benzofuran-2(3H)-ylidene)methyl]-1-methyl-1H-indol-4-yl}benzonitrile]
- IC50 [1]: 4.57 µM
- IC50 [2]: 0.0445 µM
- IC50 [3]: 1 µM

Structure (SMILES): Cn1cc(/C=C2\Oc3cc(O)cc(O)c3C2=O)c2c(-c3ccc(N)cc3)cccc21 [Example 370, (2Z)-2-{[4-(4-Aminophenyl)-1-methyl-1H-indol-3-yl]methylene}-4,6-dihydroxy-1-benzofuran-3(2H)-one]
- IC50 [1]: 3 µM
- IC50 [2]: 0.014 µM
- IC50 [3]: 1.07 µM

Structure (SMILES): COc1ccc(-c2cccc3[nH]cc(/C=C4\Oc5cc(O)cc(O)c5C4=O)c23)cc1 [Example 371, (2Z)-4,6-dihydroxy-2-{[4-(4-methoxyphenyl)-1H-indol-3-yl]methylene}benzofuran-3(2H)-one]
- IC50 [1]: 0.763 µM
- IC50 [2]: 0.73 µM
- IC50 [3]: 1.01 µM

Structure (SMILES): CC(=O)c1ccc(-c2cccc3c2c(/C=C2\Oc4cc(O)cc(O)c4C2=O)cn3C)cc1 [Example 372, (2Z)-2-{[4-(4-Acetylphenyl)-1-methyl-1H-indol-3-yl]methylene}-4,6-dihydroxy-1-benzofuran-3(2H)-one]
- IC50 [1]: 3 µM
- IC50 [2]: 0.026 µM
- IC50 [3]: 0.738 µM

Structure (SMILES): Cn1cc(/C=C2\Oc3cc(O)cc(O)c3C2=O)c2c(-c3ccncc3)cccc21 [Example 373, (2Z)-4,6-Dihydroxy-2-[(1-methyl-4-pyridin-4-yl-1H-indol-3-yl)methylene]-1-benzofuran-3(2H)-one]
- IC50 [1]: > 10 µM
- IC50 [2]: 0.3 µM
- IC50 [3]: 4.77 µM

Structure (SMILES): Cn1cc(/C=C2\Oc3cc(O)cc(O)c3C2=O)c2c(-c3ccsc3)cccc21 [Example 374, (2Z)-4,6-Dihydroxy-2-{[1-methyl-4-(3-thienyl)-1H-indol-3-yl]methylene}-1-benzofuran-3(2H)-one]
- IC50 [1]: 4.2 µM
- IC50 [2]: 0.11 µM
- IC50 [3]: 2.61 µM

Structure (SMILES): Cn1cc(/C=C2\Oc3cc(O)cc(O)c3C2=O)c2c(-c3cccnc3)cccc21 [Example 375, (2Z)-4,6-Dihydroxy-2-[(1-methyl-4-pyridin-3-yl-1H-indol-3-yl)methylene]-1-benzofuran-3(2H)-one]
- IC50 [1]: 9.5 µM
- IC50 [2]: 0.028 µM
- IC50 [3]: 2.81 µM

Structure (SMILES): Cn1cc(/C=C2\Oc3cc(O)cc(O)c3C2=O)c2c(-c3ccc(C(N)=O)cc3)cccc21 [Example 377, 4-{3-[(Z)-(4,6-Dihydroxy-3-oxo-1-benzofuran-2(3H)-ylidene)methyl]-1-methyl-1H-indol-4-yl}benzamide]
- IC50 [1]: 4.07 µM
- IC50 [2]: 0.007 µM
- IC50 [3]: 0.496 µM

— patent US20090311217A1, “3-SUBSTITUTED-1H-INDOLE COMPOUNDS, THEIR USE AS MTOR KINASE AND PI3 KINASE INHIBITORS, AND THEIR SYNTHESES” (priority 2008, published 2009)
